Where “and” joins values, the source holds several entries; their conditions need not be identical. Identical values can stand only once. Like-named read-outs stand apart in the source and are kept apart here.
Columns and labels:
[1] = cited from earlier work
[2] = In vitro drug release (dialysis bag, PBS); assay type: physicochemical
Procedure: The release media were designed to simulate physiological conditions of the human gastrointestinal tract: pH 2.0 (simulated gastric fluid), pH 6.8 (simulated intestinal fluid), and pH 7.4 (to mimic the alkaline colonic terminus). […] Aliquots (0.5 mL) were collected at predetermined intervals (0.5, 1, 2, 4, 6, 8, 12, and 24 h), with the release medium replenished immediately after each sampling to maintain sink conditions. The experiment was repeated three times. The drug release was quantified using a validated HPLC method. Cumulative release percentages were plotted against time, and release kinetics were analyzed using four models: zero-order kinetics, first-order kinetics, Higuchi equation, and Weibull distribution function. Key parameters, including T50 (time required for 50% drug dissolution) and Td (time required for 63.2% drug dissolution), were calculated to evaluate pH-dependent release profiles.

[3] = Stability of CUR sample solutions at room temperature (HPLC method validation); assay type: physicochemical; conditions: 0-20 h
Procedure: 2.4 Precision and Stability […]
was diluted to three concentration levels: low (1 μg·mL-1), medium (10 μg·mL-1), and […]
content was measured by HPLC in triplicate to assess intraday precision. The same samples were analyzed once daily for five consecutive days to assess interday […]
temperature. Samples were collected at 0, 4, 8, 12, and 20 hours and analyzed by […]
for low, medium, and high concentrations, respectively. The interday RSD values were 1.97%, 2.00%, and 1.94%, indicating good method precision. Stability results […]
temperature for up to 20 hours. […]

Caco-2 cells = test: Cellular uptake in Caco-2 cell monolayer; assay type: in vitro ADME, human; conditions: Caco-2, 200 μg·mL−1 CUR, 20 min
Procedure: Caco-2 cells were seeded into the donor chamber of Transwell inserts at a density of 1 × 10^5 cell·mL^−1 and cultured in complete medium. Transepithelial electrical resistance (TEER) was measured on the 0th, 3rd, 5th, 7th, 10th, and 15th days to monitor monolayer integrity. A TEER value exceeding 700 Ω·cm² was established as the threshold for successful formation of the human intestinal epithelial barrier model. Following model validation, the cell surface was equilibrated with PBS for 30 min and rinsed to remove debris. […] Cellular uptake was terminated by rapid washing with ice-cold PBS to remove surface-bound drug and nonviable cells. […] Cellular uptake was calculated according to Equation (4).
The established Caco-2 cell monolayer model imitating human intestinal epithelium was equilibrated in pH 7.4 PBS at 37 °C within a CO2 incubator for 30 min. After removal of PBS, the cell surface was rinsed three times. […] The uptake process was terminated by ice-cold PBS, and residual solutions were removed by washing. Cells were then scraped into centrifuge tubes, sonicated, and quantified for uptake measurements.

[4] = In vivo pharmacokinetic study, oral gavage; parameters: species or system SD rats
Procedure: The analysis was performed on a Q Exactive™ hybrid quadrupole-Orbitrap™ mass spectrometer (Thermo Fisher Scientific, USA) with the following parameters: Chromatographic separation was achieved by Agilent ZORBAX SB-C18 column (150 mm × 4.6 mm, 5 μm) with a mobile phase of acetonitrile and 0.1% formic acid aqueous solution (48:52, v/v) at a flow rate of 1 mL·min^−1 while maintaining the column temperature at 30 °C. The mass spectrometer operated in positive ion mode with an electrospray ionization (ESI) source, employing multiple reaction monitoring (MRM) for detection. Key ionization parameters included a capillary voltage of 3.0 kV and nitrogen as the collision gas.
Twelve SD rats (220 ± 20 g, equal numbers of males and females) were fasted for 24 h with free access to water and randomly allocated into two groups (n = 6 per group). […] Blood samples (~0.5 mL) were collected from the jugular vein into anticoagulant tubes at 0, 0.25, 0.5, 1, 2, 4, 6, 8, 12, and 24 h after administration. After centrifugation to collect the supernatant, samples were spiked with 20 μL of a 100 μg·mL^−1 internal standard solution, extracted twice with ethyl acetate for protein precipitation, and the combined organic phases were evaporated using a refrigerated vacuum concentrator.

[5] = In situ single-pass intestinal perfusion; assay type: in vivo, Sprague–Dawley (SD) rats; conditions: for Papp: both sexes, Sprague-Dawley, rat, other: in situ single-pass intestinal perfusion, read-out: Peff (effective permeability coefficient)
Procedure: The rats were anesthetized and secured in a supine position on a surgical platform maintained at 37 °C. […] A 10 cm intestinal segment was isolated, and incisions were made at both ends. Silicone tubes were inserted into the incisions and ligated. […] Subsequently, the test sample was perfused through the intestinal loop. […] The collected samples were centrifuged, and the supernatant was mixed with methanol to precipitate proteins. After a second centrifugation, the resulting supernatant was analyzed by HPLC.

[6] = 2 h incubation of CUR solutions with intestinal segments (residual CUR); assay type: in vitro ADME, rats
[7] = both sexes, Sprague-Dawley, rat, plasma, po, 50 mg/kg

## COc1cc(/C=C/C(=O)CC(=O)/C=C/c2ccc(O)c(OC)c2)ccc1O [CUR, Curcumin]
[1]
  Plasma concentrations as share of the administered dose (oral bioavailability): ~1%
[2]; 4 h
  Cumulative release of CUR at 4 h: ~80%
[2]; pH 2.0, 24 h
  Cumulative release rate at 24 h: 88.89%
[2]; pH 6.8, 24 h
  Cumulative release rate at 24 h: 90.17%
[2]; pH 7.4, 24 h
  Cumulative release rate at 24 h: 86.64%
[3]; CUR solution for intestinal mucus penetration study, 10 μg·mL-1, room temperature
  Stability: RSD of CUR concentration: 0.28%
[3]; CUR solution for release studies, 50 μg·mL-1, room temperature
  Stability: RSD of CUR concentration: 0.63%
Caco-2 cells; n = 3
  Drug Intake, mean (x¯): 43.82 ± 1.74 µg/mg
Caco-2 cells; per mg protein
  Drug Intake (single replicates): 42.03 µg/mg and 44.28 µg/mg and 45.46 µg/mg
[4]; [7]
  AUC(0-inf): 0.144 ± 0.0254 µg·h/mL
  AUC(0-t): 0.106 ± 0.0218 µg·h/mL
  Cmax: 0.0649 ± 0.012 µg/mL
  Tmax: 1 h
  half-life: 3.97 ± 1.48 h
[4]; both sexes, Sprague-Dawley, rat, plasma, po, 50 mg/kg, read-out: MRT0-t
  MRT last: 2.35 ± 0.67 h
[4]; both sexes, Sprague-Dawley, rat, plasma, po, 50 mg/kg, read-out: MRT0-∞
  MRT inf: 5.13 ± 1.36 h
[4]; rats, oral, 50 mg·kg−1
  Time within which almost completely eliminated: ≤ 4 h
[5]; colon
  Papp: 83 ± 1 nm/s
  Ka (absorption rate constant): 0.29 ± 0.0095 min⁻¹
[5]; duodenum
  Papp: 272 ± 5 nm/s
  Ka (absorption rate constant): 0.52 ± 0.0048 min⁻¹
[5]; ileum
  Papp: 233 ± 11 nm/s
  Ka (absorption rate constant): 0.47 ± 0.0208 min⁻¹
[5]; jejunum
  Papp: 261 ± 37 nm/s
  Ka (absorption rate constant): 0.47 ± 0.0088 min⁻¹
[5]; colon, 15 min
  Remaining dosage: 97.47 ± 0.83%
[5]; colon, 30 min
  Remaining dosage: 92.6 ± 1.04%
[5]; colon, 45 min
  Remaining dosage: 87.97 ± 1.07%
[5]; colon, 60 min
  Remaining dosage: 79.51 ± 3.48%
[5]; colon, 75 min
  Remaining dosage: 78.03 ± 0.99%
[5]; colon, 90 min
  Remaining dosage: 73.23 ± 0.45%
[5]; colon, 105 min
  Remaining dosage: 70.98 ± 0.98%
[5]; colon, 120 min
  Remaining dosage: 66.55 ± 1.07%
[5]; duodenum, 15 min
  Remaining dosage: 93.61 ± 0.59%
[5]; duodenum, 30 min
  Remaining dosage: 89.22 ± 1.18%
[5]; duodenum, 45 min
  Remaining dosage: 79.11 ± 0.58%
[5]; duodenum, 60 min
  Remaining dosage: 69.18 ± 1.92%
[5]; duodenum, 75 min
  Remaining dosage: 61.93 ± 1.54%
[5]; duodenum, 90 min
  Remaining dosage: 54.95 ± 0.33%
[5]; duodenum, 105 min
  Remaining dosage: 45.36 ± 1.72%
[5]; duodenum, 120 min
  Remaining dosage: 42.13 ± 0.88%
[5]; ileum, 15 min
  Remaining dosage: 93.68 ± 0.37%
[5]; ileum, 30 min
  Remaining dosage: 89.84 ± 0.89%
[5]; ileum, 45 min
  Remaining dosage: 82.04 ± 1.06%
[5]; ileum, 60 min
  Remaining dosage: 72.17 ± 1.08%
[5]; ileum, 75 min
  Remaining dosage: 64.11 ± 1.25%
[5]; ileum, 105 min
  Remaining dosage: 51.48 ± 1.18%
[5]; ileum, 120 min
  Remaining dosage: 45.11 ± 3.27%
[5]; jejunum, 15 min
  Remaining dosage: 94.43 ± 2.05%
[5]; jejunum, 30 min
  Remaining dosage: 90.52 ± 0.80%
[5]; jejunum, 45 min
  Remaining dosage: 87.97 ± 0.43%
[5]; jejunum, 60 min
  Remaining dosage: 77.07 ± 0.97%
[5]; jejunum, 75 min
  Remaining dosage: 70.44 ± 0.82%
[5]; jejunum, 90 min
  Remaining dosage: 62.99 ± 0.92%
[5]; jejunum, 105 min
  Remaining dosage: 54.99 ± 0.74%
[5]; jejunum, 120 min
  Remaining dosage: 46.26 ± 0.94%
[6]; colonic segment
  Residual CUR percentage: 92.90 ± 0.96%
[6]; duodenal segment
  Residual CUR percentage: 99.63 ± 0.34%
[6]; ileal segment
  Residual CUR percentage: 94.41 ± 1.57%
[6]; jejunal segment
  Residual CUR percentage: 95.63 ± 0.47%
